Values after ≈ are worked out from the molar mass of the structure shown. Where two headings read alike, the source gives them in different places.
Assays:
Sarcoma-180 cells = test: Antineoplastic activity, mice having Sarcoma-180 cells transplanted subcutaneously; type: in vivo, mouse (female, CDR strain); details: Mus musculus, Sarcoma-180, iv, 144 h; i.v. 4.0 mg/kg single dose, tumor weighed six days after dosage; read-out: T/C (average tumor weight, dosed vs. solvent-dosed control)
Procedure: (§1) The test compound was dissolved in dimethylsulfoxide, and the solution was adequately diluted with 10% Emulfore EL620(produced by Rhone Poulenc Co.) to prepare the test compound solution. The antineoplastic activity was evaluated as below.
To the lateral region of a female mouse (CDR strain, 5 to 6 week age), 3.6×10^6 to 5×10^6 Sarcoma-180 cells were transplanted subcutaneously. Next day, the test medicine solution was injected into the tail vein in a single dose. Eight to twelve mice were employed for the solvent-dosed control group, and five mice were employed for the dosed group. Six days after the dosage, the tumor was cut out, and the weight thereof was measured. The antineoplastic effect was evaluated by the ratio (T/C) of the average tumor weight of the dosed group (T) to the average tumor weight of the solvent-dosed control group (C).

[1] = test system: P388 mouse leukemia cells; test: Activity against tumor cell growth (P388, MTT, 72 h); type: cell-based; details: read-out: IC50 (50% growth inhibition concentration)
Procedure: Using a culture medium RPMI1640 supplemented with 10% inactivated bovine fetal serum, 2 mM glutamine, 100 μ/ml kanamycin sulfate, and 5 μM 2-hydroxyethyldisulfide (This culture medium is hereinafter referred to simply as "culture medium"), P388 mouse leukemia cells were diluted to a concentration of 1.5×10^5 cells/ml in the culture medium, and were placed in each well of 96-well multiplate in 60 μl portions. Separately, the test compound was dissolved in dimethylsulfoxide and was adequately diluted with the culture medium. The diluted solution containing test compound was added to the wells of the above plate respectively in 60 μl portions. Then the cells were incubated in a CO2 -incubator (5% CO2, 37° C.) for 72 hours.
The surviving cell numbers were measured according to the Mosmann's method (J. Immunol. Meth., 65 55-63, 1983) as follows. A 2.5 mg/ml solution of MTT (3-[4,5-dimethylthiazol-2-yl]-2,5-diphenyltetrazolium bromide) in Dulbecco's phosphate buffer solution (PBS) was prepared and added to each of the wells by 20 μl. The cells were further incubated for 3 hours. A 150 μl portion of 0.04N hydrochloric acid-isopropanol solution was added to each of the wells, and MTT-formazane formed was allowed to dissolve by pipetting. The absorbance of the solutions was measured at 540 nm taking the no-cell-containing [solution as the background. The 50% growth inhibition concentration (ICs50) was calculated from ratio of the absorbances of the treated samples to the absorbance of the no-medicine-treated sample, and from the concentration of the test compound.

Colon-26 cells = test: Antineoplastic activity, mice having Colon-26 cells transplanted subcutaneously; type: in vivo, mouse (female, CDF1 strain); details: Mus musculus, Colon 26, iv, 168 h, read-out: T/C (average tumor weight, dosed vs. solvent-dosed control)
Procedure: as §1
To the lateral region of a female mouse (CDF1 strain, 8 to 12 week age), 1×10^6 Colon-26 cells were transplanted subcutaneously. On the sixth day after the transplantation, the test medicine solution-was injected into the tail vein in a single dose. Seven to twelve mice were employed for the solvent-dosed control group, and five mice were employed for the dosed group. One week after the dosage, the tumor was cut out, and the weight thereof was measured. The antineoplastic effect was evaluated by the ratio (T/C) of the average tumor weight of the dosed group (T) to the average tumor weight of the solvent-dosed control group (C).

[2] = P388 mouse leukemia cells, 72 h, 37° C., MTT
[3] = i.v. 0.5 mg/kg single dose on sixth day, tumor weighed one week after dosage

Row | SMILES | IC50 [1, 2] [ng/mL] | response vs control in vivo at 0.5 mg/kg (Colon-26 cells; [3]) [%] | further results
1 | COC(=O)c1c(C(F)(F)F)[nH]c2c(O)cc3c(c12)C(CCl)CN3C(=O)c1cc2cc(NC(=O)c3cc4c(OC)c(OC)c(OC)cc4nn3)ccc2[nH]1 (stereo not drawn) [Example 50, Methyl 1-chloromethyl-5-hydroxy-7-trifluoromethyl-3-[5-[(5,6,7-trimethoxycinnolin-3-ylcarbonyl)amino]-1H-indol-2-ylcarbonyl]-1,2,3,6-tetrahydropyrrolo[3,2-e]indole-8-carboxylate] | 4.5 (≈ 5.98 nM) | – | response vs control in vivo at 4 mg/kg (Sarcoma-180 cells): 15%
2 | COC(=O)c1c(C(F)(F)F)[nH]c2c(O)cc3c(c12)[C@H](CCl)CN3C(=O)c1cc2cc(NC(=O)c3cc4cccc(OC)c4o3)ccc2[nH]1 [Example 63, Methyl (1S)-1-chloromethyl-5-hydroxy-3-[5-[(7-methoxybenzofuran-2-ylcarbonyl)amino]-1H-indol-2-ylcarbonyl]-7-trifluoromethyl-1,2,3,6-tetrahydropyrrolo[3,2-e]indole-8-carboxylate] | 0.55 (≈ 0.808 nM) | 4 | –
3 | COC(=O)c1c(C(F)(F)F)[nH]c2c(O)cc3c(c12)[C@H](CCl)CN3C(=O)c1cc2cc(NC(=O)c3cc4c(OC)cccc4o3)ccc2[nH]1 [Example 75, Methyl (1S)-1-chloromethyl-5-hydroxy-3-[5-(4-methoxybenzofuran-2-ylcarbonyl)amino-1H-indol-2-ylcarbonyl]-7-trifluoromethyl-1,2,3,6-tetrahydropyrrolo[3,2-e]indole-8-carboxylate] | 0.74 (≈ 1.09 nM) | 17 | –
4 | COC(=O)c1c(C(F)(F)F)[nH]c2c(O)cc3c(c12)[C@H](CCl)CN3C(=O)c1cc2cc(NC(=O)c3cc4cc(OC)ccc4o3)ccc2[nH]1 [Example 76, Methyl (1S)-1-chloromethyl-5-hydroxy-3-[5-(5-methoxybenzofuran-2-ylcarbonyl)amino-1H-indol-2-ylcarbonyl]-7-trifluoromethyl-1,2,3,6-tetrahydropyrrolo[3,2-e]indole-8-carboxylate] | 0.2 (≈ 0.294 nM) | 6 | –
5 | COC(=O)c1c(C(F)(F)F)[nH]c2c(O)cc3c(c12)[C@H](CCl)CN3C(=O)c1cc2cc(NC(=O)c3cc4ccc(OC)cc4o3)ccc2[nH]1 [Example 77, Methyl (1S)-1-chloromethyl-5-hydroxy-3-[5-(6-methoxybenzofuran-2-ylcarbonyl)amino-1H-indol-2-ylcarbonyl]-7-trifluoromethyl-1,2,3,6-tetrahydropyrrolo[3,2-e]indole-8-carboxylate] | 0.23 (≈ 0.338 nM) | 6 | –
6 | COC(=O)c1c(C(F)(F)F)[nH]c2c(O)cc3c(c12)[C@H](CCl)CN3C(=O)c1cc2cc(NC(=O)c3cc4cc(OC)c(OC)c(OC)c4o3)ccc2[nH]1 [Example 78, Methyl (1S)-1-chloromethyl-5-hydroxy.-7trifluoromethyl-3-[5-(5,6,7-trimethoxybenzofuran-2-ylcarbonyl)amino-1H-indol-2-ylcarbonyl]-1,2,3,6-tetrahydropyrrolo[3,2-e]indole-8-carboxylate] | 0.33 (≈ 0.445 nM) | – | response vs control in vivo at 0.125 mg/kg (Colon-26 cells; i.v. 0.125 mg/kg single dose on sixth day, tumor weighed one week after dosage): 26%
7 | CCN(CC)c1ccc2cc(C(=O)Nc3ccc4[nH]c(C(=O)N5C[C@@H](CCl)c6c5cc(O)c5[nH]c(C(F)(F)F)c(C(=O)OC)c65)cc4c3)oc2c1 [Example 79, Methyl (1S)-1-chloromethyl-3-[5-(6-diethylaminobenzofuran-2-ylcarbonyl)amino-1H-indol-2-ylcarbonyl]-5-hydroxy-7-trifluoromethyl-1,2,3,6tetrahydropyrrolo[3,2-e]indole-8-carboxylate] | 2.1 (≈ 2.91 nM) | 9 | –
8 | COC(=O)c1c(C(F)(F)F)[nH]c2c1[C@@]13C[C@@H]1CN(C(=O)c1cc4cccc(OC)c4o1)C3=CC2=O [Example 86, Methyl (7bR, 8aS)-2-(7-methoxybenzofuran-2-ylcarbonyl)-6-trifluoromethyl-1,2,8,8a-tetrahydrocyclopropa[c]pyrrolo[3,2-e]indol-4 (5H)-one-7-carboxylate] | 1.1 (≈ 2.26 nM) | 40 | –
9 | COC(=O)c1c(C(F)(F)F)[nH]c2c1[C@@]13C[C@@H]1CN(C(=O)/C=C/c1ccc(OC)cc1)C3=CC2=O [Example 90, Methyl (7bR, 8aS)-2-[2-(4-methoxyphenyl)ethylene-1-ylcarbonyl)-6-trifluoromethyl-1,2,8,8a-tetrahydrocyclopropa[c]pyrrolo[3,2-e]indol-4 (5H)-one-7-carboxylate] | 0.9 (≈ 1.91 nM) | – | response vs control in vivo at 1 mg/kg (Colon-26 cells; i.v. 1.0 mg/kg single dose on sixth day, tumor weighed one week after dosage): 31%
10 | COC(=O)c1c(C(F)(F)F)[nH]c2c(OC(=O)N3CCN(C)CC3)cc3c(c12)[C@H](CCl)CN3C(=O)c1cc2cc(NC(=O)c3cc4c(OC)c(OC)c(OC)cc4cn3)ccc2[nH]1 [Example 97] | – | – | response vs control in vivo at 0.5 mg/kg (Colon-26 cells): 11%; IC50 ([1]; Mus musculus, P388, 72 h): 5.8 ng/mL (≈ 6.6 nM)
11 | COC(=O)c1c(C(F)(F)F)[nH]c2c(OC(=O)N3CCN(C)CC3)cc3c(c12)[C@H](CCl)CN3C(=O)c1cc2cc(NC(=O)c3cc4c(cn3)[nH]c3ccccc34)ccc2[nH]1 [Example 98, Methyl (1S)-1-chloromethyl-5-(4-methylpiperazin-1-ylcarbonyl)oxy-3-[5-[(9H-pyrido[3,4-b]indol-3-ylcarbonyl)amino]-1H-indol-2-ylcarbonyl]-7-trifluoromethyl-1,2,3,6-tetrahydropyrrolo[3,2-e]indole-8-carboxylate] | – | – | response vs control in vivo at 0.5 mg/kg (Colon-26 cells): 29%; IC50 ([1]; Mus musculus, P388, 72 h): 5.7 ng/mL (≈ 6.89 nM)
12 | COC(=O)c1c(C(F)(F)F)[nH]c2c(OC(=O)N3CCN(C)CC3)cc3c(c12)[C@H](CCl)CN3C(=O)c1cc2cc(NC(=O)c3cc4cccc(OC)c4o3)ccc2[nH]1 [Example 99, Methyl (1S)-1-chloromethyl-3-[5[(7-methoxybenzofuran-2-ylcarbonyl)amino]-1H-indol-2-ylcarbonyl]-5-(4-methylpiperazin-1-ylcarbonyl)oxy-7-trifluoromethyl-1,2,3,6-tetrahydropyrrolo[3,2-e]indole-8-carboxylate] | – | – | response vs control in vivo at 2 mg/kg (Colon-26 cells): 5%
13 | COC(=O)c1c(C(F)(F)F)[nH]c2c(OC(=O)N3CCN(C)CC3)cc3c(c12)[C@H](CCl)CN3C(=O)c1cc2cc(NC(=O)c3cc4ccccc4cn3)ccc2[nH]1 [Example 107, Methyl (1S)-1-chloromethyl-3-[5-[(isoquinolin-3-ylcarbonyl)amino]-1H-indol-2-ylcarbonyl]-5-(4-methylpiperazin-1-ylcarbonyl)oxy-7-trifluoromethyl-1,2,3,6-tetrahydropyrrolo[3,2-e]indole-8-carboxylate] | – | – | response vs control in vivo at 0.5 mg/kg (Colon-26 cells): 7%; IC50 ([1]; Mus musculus, P388, 72 h): 4.6 ng/mL (≈ 5.84 nM)
14 | COC(=O)c1c(C(F)(F)F)[nH]c2c(O)cc3c(c12)[C@H](CCl)CN3C(=O)c1cc2cc(NC(=O)Nc3ccc4[nH]c(C(=O)N5C[C@@H](CCl)c6c5cc(O)c5[nH]c(C(F)(F)F)c(C(=O)OC)c65)cc4c3)ccc2[nH]1 [Example 108, (S,S)-3-3'-[Carbonylbis(imino-1H-indol-5,2-dicarbonyl)]bis-[1-chloromethyl-5-hydroxy-7-trifluoromethyl-1,2,3,6-tetrahydropyrrolo[3,2-e]indole-8-carboxylic acid methyl ester]] | 0.007 (≈ 0.00673 nM) | – | response vs control in vivo at 0.0156 mg/kg (Colon-26 cells; i.v. 0.0156 mg/kg single dose on sixth day, tumor weighed one week after dosage): 6%

Source: patent US5629430A, “Trifluoromethylpyrroloindolecarboxylic acid ester and process for production thereof” (Kyorin Pharmaceutical Co., Ltd., priority 1992, dated 1997)
